{
  "source": "paper PMC2587100",
  "about": "(Biochemistry, 2008)",
  "assay_type_in_all_cases": "biochemical",
  "key": {"[1]": {"target": "T1, alkaline phosphatase (AP) (Escherichia coli, UniProt P00634, R188S)", "T1 sequence (P00634 23-471 R188S)": "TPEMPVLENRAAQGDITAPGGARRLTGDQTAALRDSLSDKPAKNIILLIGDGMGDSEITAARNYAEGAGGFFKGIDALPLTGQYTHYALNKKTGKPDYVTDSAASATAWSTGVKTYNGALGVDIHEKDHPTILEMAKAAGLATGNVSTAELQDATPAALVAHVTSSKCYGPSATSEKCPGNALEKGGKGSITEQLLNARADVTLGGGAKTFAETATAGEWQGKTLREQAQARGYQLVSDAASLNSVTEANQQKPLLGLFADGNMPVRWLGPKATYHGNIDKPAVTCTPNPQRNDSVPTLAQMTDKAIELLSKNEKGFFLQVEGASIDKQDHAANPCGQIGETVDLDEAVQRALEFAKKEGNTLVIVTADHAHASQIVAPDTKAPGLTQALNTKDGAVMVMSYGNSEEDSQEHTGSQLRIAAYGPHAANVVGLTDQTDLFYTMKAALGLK", "experiment": "[…]-based hydrolysis assay, kcat/KM"}, "[2]": {"target": "T2, alkaline phosphatase (AP) (Escherichia coli, UniProt P00634, R188K)", "T2 sequence (P00634 23-471 R188K)": "as the sequence (P00634 23-471 R188S) above, with S166K counted along it", "experiment": "[…]-based hydrolysis assay, kcat/KM"}, "[3]": {"target": "T1, alkaline phosphatase (AP)", "experiment": "steady-state hydrolysis by purified enzyme, kcat/KM"}, "[4]": {"target": "T2, alkaline phosphatase (AP)", "experiment": "steady-state hydrolysis by purified enzyme, kcat/KM"}, "[5]": {"target": "alkaline phosphatase (AP) (Escherichia coli, UniProt P00634)", "sequence (P00634 22-471)": "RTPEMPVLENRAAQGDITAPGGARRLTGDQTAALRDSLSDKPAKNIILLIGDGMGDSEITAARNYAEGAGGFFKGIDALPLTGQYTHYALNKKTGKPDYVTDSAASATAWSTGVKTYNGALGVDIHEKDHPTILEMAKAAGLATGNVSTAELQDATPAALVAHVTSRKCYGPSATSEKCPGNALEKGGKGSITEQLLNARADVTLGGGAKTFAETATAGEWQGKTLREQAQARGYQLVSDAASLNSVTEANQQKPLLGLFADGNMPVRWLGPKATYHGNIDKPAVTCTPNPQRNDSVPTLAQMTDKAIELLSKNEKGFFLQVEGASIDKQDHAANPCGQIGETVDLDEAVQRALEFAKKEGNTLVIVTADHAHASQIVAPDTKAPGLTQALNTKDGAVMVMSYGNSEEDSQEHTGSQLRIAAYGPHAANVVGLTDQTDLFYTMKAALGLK", "experiment": "steady-state hydrolysis by purified enzyme, kcat/KM"}, "[6]": {"target": "T2, alkaline phosphatase (AP)", "experiment": "continuous absorbance assay of hydrolysis, kcat/KM"}, "[7]": {"target": "T1, alkaline phosphatase (AP)", "experiment": "continuous absorbance assay of hydrolysis, kcat/KM"}},
  "data": [
    {"smiles": "CCOP(=O)(O)O", "note": "[EtOP, ethyl phosphate]", "values": [
      {"measurement": "EtOP / kcat/KM", "setting": "[1]", "value": 24, "unit": "M⁻¹ s⁻¹"},
      {"measurement": "EtOP / kcat/KM", "setting": "[2]", "value": 20, "unit": "M⁻¹ s⁻¹"}
    ]},
    {"smiles": "O=[N+]([O-])c1ccc(OP(O)(O)=S)cc1", "note": "[pNPPS, p-Nitrophenyl O-phosphorothioate]", "values": [
      {"measurement": "kcat/KM (M^-1s^-1) / pNPPS", "setting": "[3]", "value": "2.6 × 10^3 M^−1s^−1"},
      {"measurement": "kcat/KM (M^-1s^-1) / pNPPS", "setting": "[4]", "value": "1.6 × 10^4 M^−1s^−1"},
      {"measurement": "kcat/KM (M^-1s^-1) / pNPPS", "setting": "[5]", "value": "5.5 × 10^3 M^−1s^−1"}
    ]},
    {"smiles": "O=[N+]([O-])c1ccc(OP(=O)(O)O)cc1", "note": "[pNPP, p-Nitrophenyl phosphate]", "values": [
      {"measurement": "pNPP / kcat/KM (M^-1s^-1)", "setting": "[6]", "value": "1.9 × 10^5 M^−1s^−1"},
      {"measurement": "pNPP / kcat/KM (M^-1s^-1)", "setting": "[7]", "value": "1.0 × 10^5 M^−1s^−1"}
    ]}
  ]
}
